# Values of other authors in patent publication US20070190209A1, “All natural multivitamin and multimineral dietary supplement formulations for enhanced absorption and biological utilization” (Mannatech, Inc., priority 2006, published 2007).
# Like-named read-outs stand apart in the source and are kept apart here.
# What was measured:
# [1] = system: human cytosolic glutathione S-transferases (GSTs); conditions: van Haften, et al. (2002, 2003)
# [2] = system: intestinal glucuronidation
# [3] = system: phase II detoxifying enzymes; conditions: glutathione transferases, NAD(P)H:quinone reductases, epoxide hydrolases; literature
# [4] = system: mammalian glutathione transferases; conditions: Kulkarni and Kulkarni (1995)
# thyroid gland of rats = conditions: Radovic, et al. (2005)
# bone components = conditions: in vitro, combined with zinc; Uchiyama, et al. (2005)
# osteoclasts = conditions: Rao, et al. (2003)
# [5] = by decreasing or eliminating intestinal glucuronidation, Mizuma and Awazu (2004)
compound,measurement,setting,value
tocopherols,activity of human cytosolic GSTs,[1],inhibited
tocotrieneols,activity of human cytosolic GSTs,[1],inhibited
Oc1cc(O)c2c(c1)O[C@H](c1ccc(O)c(O)c1)[C@H](O)C2 [epicatechin],absorption of model drug alpha-napthol,[2]; [5],increase the absorption
"O=C(O[C@@H]1Cc2c(O)cc(O)cc2O[C@@H]1c1cc(O)c(O)c(O)c1)c1cc(O)c(O)c(O)c1 [epigallocatechin galleate (ECGC), epigallocatechin galleate]",absorption of model drug alpha-napthol,[2],increase the absorption
Cc1c(C)c2c(c(C)c1O)CC[C@@](C)(CCC[C@H](C)CCC[C@H](C)CCCC(C)C)O2 [alpha-tocopherol],activity of human cytosolic GSTs,[1],inhibited
C[S+]([O-])CCCC/C(=N\OS(=O)(=O)O)S[C@@H]1O[C@H](CO)[C@@H](O)[C@H](O)[C@H]1O (stereo partly shown) [glucoraphanin],induction of phase II detoxifying enzymes,[3],potent inducers
vitamin A,inhibition of mammalian glutathione transferases,[4],inhibit mammalian glutathione transferases at low concentrations
COc1cc(O)c(CC=C(C)C)c(O)c1C(=O)/C=C/c1ccc(O)cc1 [xanthohumol],uptake of iodine into the thyroid gland,thyroid gland of rats,stimulates the uptake of iodine
CC1=C(/C=C/C(C)=C/C=C/C(C)=C/C=C/C=C(C)/C=C/C=C(C)/C=C/C2=C(C)C[C@@H](O)CC2(C)C)C(C)(C)CCC1 [beta-cryptoxanthin],anabolic effects on bone components,bone components,synergistic anabolic effects
O=c1cc(-c2ccccc2)oc2cc(O)cc(O)c12 [chrysin],absorption of model drug alpha-napthol,[2]; [5],increase the absorption
CSCCCCC(=NOS(=O)(=O)O)S[C@@H]1O[C@H](CO)[C@@H](O)[C@H](O)[C@H]1O [glucoerucin],induction of phase II detoxifying enzymes,[3],potent inducers
O=c1c(O)c(-c2ccc(O)c(O)c2)oc2cc(O)cc(O)c12 [quercetin],absorption of model drug alpha-napthol,[2]; [5],increase the absorption
CC(C)=CCC/C(C)=C/C=C/C(C)=C/C=C/C(C)=C/C=C/C=C(C)/C=C/C=C(C)/C=C/C=C(\C)CCC=C(C)C [lycopene],formation of osteoclasts and osteoclastic mineral resorption,osteoclasts,prevented the formation of osteoclasts and osteoclastic mineral resorption
